Measured values taken from US8513280B2, “Use of epothilones in the treatment of neuronal connectivity defects such as schizophrenia and autism” (Institut National de la Sante et de la Recherche Medicale, priority 2004, dated 2013).
Several values for one entry are separate records, joined by “and”; a condition that tells them apart may be missing. Equal entries are not always repeated.

Assays:
Format in all cases: in vivo, mouse
STOP KO mice [1] = experiment: Synaptic vesicle density in CA1 hippocampal synapses (electron micrographs), STOP KO mice
Procedure: It reports the quantitative analysis of synaptic vesicle density in CA1 hippocampal synapses of mice treated or not with epothilone D 3 mg/kg/week or with neuroleptics (0.5 mg/kg/day haloperidol and 5 mg/kg/day chlorpromazine, in drinking water, from birth to adulthood). Synaptic vesicle density, calculated as the ratio of the number of vesicle/nerve terminal surface (after subtraction of the surface area occupied by mitochondria). Results (means+/−s.e.m.) are shown for pooled 75 measurements from five wild type mice and from five STOP KO mice either untreated or treated with Epothilone D. For neuroleptic control experiments, results (means+/−s.e.m.) are shown for pooled 75 measurements from three STOP KO mice either untreated or treated with neuroleptics.
Hippocampus was dissected out from transcardially fixed mice, sliced and embedded in Epon. To determine the surface density of synaptic vesicles, a total of cross sections of 75 synapses made of hippocampal CA1 region were photographed randomly, and the numbers of synaptic vesicles in each nerve pre-terminal were counted on the electron micrographs. Synaptic vesicles density of STOP KO mice following long term neuroleptic treatment (0.5 mg/kg/day haloperidol and 5 mg/kg/day chlorpromazine, in drinking water, from birth to adulthood) was also examined using the same protocol. […]

STOP KO mice [2] = experiment: Pup survival in progeny of STOP KO mothers
Procedure: The epothilone treatment has been then tested whether it could induce pup survival in STOP KO mothers. Nine STOP KO mice treated with Epothilone D at 0.3 mg/kg/week and eight untreated females were mated the pups survival were analysed after delivery.

WT mice [3] = experiment: Maternal behaviour: nest building and pup retrieving, WT mice; settings: example II
Procedure: (§1) For maternal behaviour, STOP deficient or control wild type (WT) female mice, nulliparous, 8 weeks old, were treated either with a placebo (carrier alone), or with epothilone D.
(§2) The maternal behaviour of treated and untreated mice was monitored by assaying the mouse ability to build a nest and to retrieve pups
(§3) For assessment of nesting capacity, the tested mouse was placed in a 240×240×120 mm cage containing litter and provided with a Kleenex tissue folded in 4 (final dimensions, 100×100 mm). After 60 hours, the mouse ability to use the paper and to build a nest was scored as follows:
(§4) Tissue use score: 0, the Kleenex tissue remained folded; 1, the tissue has been unfolded but not shredded; 2 the tissue was shredded.
(§5) Nest building score: 0, no attempt to build a nest; 1, primitive flat nest of uncontrolled shape; 2, true nest, the paper is mixed with litter to form a circular nest, less than 80 mm in diameter.
(§6) For assessment of retrieving: following the nest building test, mice were trained and assessed for pup retrieving as in Andrieux et al. (Genes Dev. 2002 Sep. 15; 16(18):2350-64. Retrieving was scored as the number of pups retrieved (0 to 3).
Finally a global score for nesting and retrieving capacity (TNR) was determined for each mouse, by adding the tissue use, nest building, and pup retrieving scores (maximal score for TNR is 7). […]

STOP deficient mice [4] = experiment: Maternal behaviour: nest building and pup retrieving, STOP KO mice
Procedure: as §1, §2, §3, §4, §5, §6
Finally a global score for nesting and retrieving capacity (TNR) was determined for each mouse, by adding the tissue use, nest building, and pup retrieving scores (maximal score for TNR is 7).
The maternal behaviour of untreated and treated mice was monitored by assaying mouse ability to build a nest and to retrieve pups. Experiments were performed at 3 concentrations of epothilone D (4 mg/kg/week, 3 mg/kg/week and 0.3 mg/kg/week).
Among 69 STO KO mice, […] were treated with placebo injections, 17 were treated with 3 mg/kg/week of epothilone, and 18 were treated with 0.3 mg/kg/week of epothilone. Among 34 WT mice, 17 were treated with placebo injections, and 17 were treated with 3 mg/kg/week of epothilone.
In another series of experiments, among 19 STOP KO mice, 9 were treated with placebo injections, 10 with 4 mg/kg/week epothilone D and as control, among 20 WT mice, 10 were treated with placebo injections and 10 with 4 mg/kg/week epothilone D.

STOP deficient mice [5] = experiment: Spontaneous activity, video-recorded during 3 h, STOP KO mice
Procedure: (§7) Spontaneous activity (male and female) was recorded and quantified during a three hours period of time, as in Andrieux et al., Genes Dev. 2002 Sep. 15; 16(18):2350-64. Five activities were considered: feeding, remaining still without sleeping, walking, grooming and sleeping. For each activity, the total time spent doing the activity and the number of distinct sequences of activity, were determined.
(§8) In a first series of experiments, epothilone D was injected intra-peritoneally, once a week, at either 0.3 mg/kg/week or 3 mg/kg/week for at least 8 weeks. The drug was diluted at a final concentration of 0.3 mg/ml in water, from a 50 mg/ml stock solution in DMSO.
(§9) In a second series of experiments, epothilone D was injected intra-peritoneally, in two injections a week, at a total dose of 4 mg/kg/week, for 8 weeks. The drug was diluted at a final concentration of 0.2 mg/ml in water, from a 50 mg/ml stock solution in DMSO.
(§10) Among 61 STOP KO mice, 28 were treated with placebo injections, 33 with 3 mg/kg/week of epothilone D. Among 62 WT mice, 29 were treated with placebo injections, 33 with 3 mg/kg/week of epothilone D.
(§11) In another series of experiments, among 19 STOP KO mice, 9 were treated with placebo injections, 10 with 4 mg/kg/week epothilone D. Among 20 WT mice, 10 were treated with placebo injections and 10 with 4 mg/kg/week epothilone D.

WT mice [6] = experiment: Spontaneous activity, video-recorded during 3 h, WT mice
Procedure: as §7, §8, §9, §10, §11

[7] = STOP KO mice, 0.3 mg/kg/week i.p., FIG. 3
[8] = STOP KO mice, 3 mg/kg/week i.p., FIG. 3
[9] = STOP deficient mice, 4 mg/kg/week, FIG. 4
[10] = STOP deficient mice, 3 mg/kg/week i.p., FIG. 1-B
[11] = STOP deficient mice, 4 mg/kg/week, 8 weeks, FIG. 2

In the case of C/C1=C/CC(/C(C)=C/c2csc(C)n2)OC(=O)CC(O)C(C)(C)C(=O)C(C)C(O)C(C)CCC1 (stereo not shown) [epothilone D], the “increase of synaptic vesicle density relative to absence of treatment” value (STOP KO mice [1]; CA1 hippocampal synapses, 4 mg/kg/week, p<0.001, FIG. 5) is reported as 20%, the “increase of synaptic vesicle density” value (STOP KO mice [1]; summary statement, dose not stated) is reported as “about 20%” and the “STOP KO females with pup survival” value (STOP KO mice [2]; 0.3 mg/kg/week, nine treated STOP KO females mated, no pup survival without treatment) is reported as “three out of the nine”. For the same compound, the “ratio of surviving pups to newborns” value (STOP KO mice [2]; 0.3 mg/kg/week, per mouse, the three STOP KO females with surviving pups) was 5/6 (2×) and 6/6, the “maternal behaviour, compatible with pup survival” value (STOP KO mice [2]; STOP deficient female mice, summary statement, dose not stated) was “re-established” and the “effect on nurturing-related behaviours” value (WT mice [3]) was “no significant effect”. For the same compound, the “TNR score (global score, maximal 7)” value (STOP deficient mice [4]; [7]) was “highly significant increase”, the “nest building score (0-2)” value (STOP deficient mice [4]; [7]) was “improved” and the “paper use score (tissue use score, 0-2)” value (STOP deficient mice [4]; [7]) was “improved”. The “pup retrieving score (0-3)” value (STOP deficient mice [4]; [7]) was “improved”, the “TNR score (global score, maximal 7)” value (STOP deficient mice [4]; [8]) was “highly significant increase” and the “nest building score (0-2)” value (STOP deficient mice [4]; [8]) was “improved”. The “paper use score (tissue use score, 0-2)” value (STOP deficient mice [4]; [8]) was “improved”, the “pup retrieving score (0-3)” value (STOP deficient mice [4]; [8]) was “improved” and the “TNR score (global score, maximal 7)” value (STOP deficient mice [4]; STOP KO mice, 4 mg/kg/week, rose from 1.16 without treatment, highly significant increase, FIG. 4) was 4.4. The “nest building score (0-2)” value (STOP deficient mice [4]; [9]) was “strongly improved”, the “paper use score (tissue use score, 0-2)” value (STOP deficient mice [4]; [9]) was “strongly improved” and the pup retrieving score (STOP deficient mice [4]; [9]) was “tended to improve”. The “total number of shifts between activities” value (STOP deficient mice [5]; STOP KO mice, summary statement, dose not stated) was “decrease”, the “total time spent grooming” value (STOP deficient mice [5]; STOP deficient mice, 3 mg/kg/week i.p. once a week, at least 8 weeks, vs placebo, FIG. 1-A) was “decrease” and the “number of remaining still while awake sequences” value (STOP deficient mice [5]; [10]) was “reducing”. The “number of walking sequences” value (STOP deficient mice [5]; [10]) was “reducing”, the “total time spent sleeping” value (STOP deficient mice [5]; STOP deficient mice, 3 mg/kg/week i.p., vs placebo, FIG. 1-A) was “increase” and the “total number of shifts between activities” value (STOP deficient mice [5]; STOP deficient mice, 3 mg/kg/week i.p., vs placebo, FIG. 1-B) was “decreased”. For the same compound, the “total number of shifts between activities” value (STOP deficient mice [5]; STOP deficient mice, 4 mg/kg/week i.p. in two injections a week, 8 weeks, FIG. 2) was “remarkable decrease”, the “number of feeding sequences” value (STOP deficient mice [5]; [11]) was “remained unaffected” and the “number of grooming sequences” value (STOP deficient mice [5]; [11]) was “decrease”. The “number of sleeping sequences” value (STOP deficient mice [5]; [11]) was “remained unaffected”, the “number of walking sequences” value (STOP deficient mice [5]; [11]) was “decrease” and the “total time spent grooming” value (STOP deficient mice [5]; [11]) was “highly significantly diminished”. For the same compound, the time spent sleeping (STOP deficient mice [5]; STOP deficient mice, 4 mg/kg/week, 8 weeks, trend (tended to increase), FIG. 2) was “increase”, the “time spent remaining still without sleeping” value (STOP deficient mice [5]; STOP deficient mice, 4 mg/kg/week, 8 weeks, trend, FIG. 2) was “tended to diminish” and the “number of sequences of stillness” value (WT mice [6]; 4 mg/kg/week, FIG. 2, said to be compatible with random fluctuations) was “significant increase”. The “effect on the recorded activities” value (WT mice [6]; example I (3 and 4 mg/kg/week)) was “no significant effect”.
